Assay results from patent US10478464B2, “Compositions and methods of use” (priority 2009, dated 2019).

Key:
[1] = test system: HOP-92 lung cancer cell lines; assay: Cell survival, colorimetric MTT assay, HOP-92; type: cell-based, human; details: 72 hours; for reduced the survival of HOP92 cell lines by: 100 μM
Method: 1) Against the lung cancer cell lines: The effect of the racemic mixture of 8-HHA and that of the individual enantiomers, namely S and R enantiomers, were examined on the survival of HOP-92 lung cancer cell lines. The cell viability was examined in the exponential growth phase with 100 μM of 8-HHA for 72 hours using colorimetric MTT assay. In separate assays, HOP-92 cells were treated with different concentrations of the S-enantiomer of 8-HHA ranging from 20-100 μM for 72 hours.

PARP [2] = assay: PARP cleavage in PLC-5 liver cancer cells; type: cell-based; details: PLC-5 cells, 100 μM
Text: (§1) PARP cleavage is considered a specific and well established marker of apoptosis. During apoptosis, FAS receptor undergoes down regulation, which is considered as an established indicator of apoptosis. Apoptosis can be induced by a pathway stimulated by FAS receptor binding to FAS ligand and is called extrinsic mechanism. Apoptosis by this pathway results in the reduction of FAS receptor.
(§2) 1) Against liver cancer cell lines: The effect of 8-HHA was examined on apoptosis in liver cancer cell lines.

FAS receptor [3] = assay: FAS protein levels in HOP-92 cells; type: cell-based, human; details: HOP92 cells, 100 μM, 72 hours
Method: as §1
2) Against lung cancer cell lines: HOP-92 lung cancer cell lines were treated with 100 μM of (S)-8-HHA for 72 hours.

[4] = test system: Hep3B liver cancer cell line; assay: Cell survival, colorimetric MTT assay, Hep3B; type: cell-based; details: 100 μM, 72 hours
Method: (§3) 2) Against the liver cancer cell lines: The effect of the racemic mixture of 8-HHA and that of the individual enantiomers, namely S and R enantiomers, were examined on survival of PLC/PRF/5 (also referred to as “PLC-5” or “PLC5”), Hep3B and SNU449 (also referred to as “SNU”) liver cancer cell lines. The cell viability was examined in the exponential growth phase with 100 μM of 8-HHA for 72 hours using colorimetric MTT assay. In separate assays, PLC-5 cells were treated with different concentrations of S-enantiomer of 8-HHA ranging from 20-100 μM for 72 hours.

[5] = test system: PLC/PRF/5 liver cancer cell line; assay: Cell survival, colorimetric MTT assay, PLC/PRF/5; type: cell-based; details: 72 hours
Method: as §3

PARP [6] = assay: PARP cleavage in SNU liver cancer cells; type: cell-based; details: 100 μM
Text: as §1, §2

[7] = test system: SNU449 liver cancer cell line; assay: Cell survival, colorimetric MTT assay, SNU449; type: cell-based; details: 100 μM, 72 hours
Method: as §3

Bim1 = assay: Pro-apoptotic Bim1 in HOP92 cells; type: cell-based, human; details: 100 μM, 72 hours
Method: Bim1 is a pro-apoptotic protein whose up regulation leads to apoptosis. HOP92 cell lines were treated with 100 μM of S-enantiomer of 8-HHA for 72 hours.

FAS receptor [8] = assay: FAS receptor levels in PLC-5 cells; type: cell-based; details: 100 μM, 72 hours
Method: as §1
PLC-5 cell lines were treated with […] 100 μM for 72 hours.

HeLa cells = assay: HeLa cell viability by Alamar Blue assay; type: cell-based; details: 24, 48 and 72 hrs
Text: Assessment of cell viability by alamar blue reduction method is routinely used for illustrating cytotoxic potential of candidate drugs. Alamar blue detects cell viability by utilizing a blue non-fluorescent dye resazurin, which is converted to a pink fluorescent dye, resorufin by cellular metabolic intermediates. The fluorescent signal generated from the assay is proportional to the number of living cells in the sample. Confluent HeLa cells (70-80%) grown in T-75 flasks were detached using trypsin-EDTA. Following centrifugation, the cells pellet was resuspended in DMEM medium and counted using a hemocytometer. Cells were seeded into 96 well plate at a density of 10,000 cells/100 μl/well and incubated at 37° C./5% CO2 for 8 hrs. Media was removed and test compounds were added in the volume of 100 μl. […] At the end of 24, 48 & 72 hrs treatment with test compound, fluorescence was measured at 530 excitation and 590 nm emissions using a micro plate reader. Viability expressed as % control was plotted against drug concentration.
The mean value of duplicate wells was calculated. […] The percentage of cell viability of test samples was calculated as:
[formula] IC50 values were determined by nonlinear regression analysis (curve fit) of percent viability data against drug concentration using the sigmoidal dose-response (variable) equation (Graph Pad Prism 4 software).

Row | SMILES | reduced the survival of HOP92 cell lines by [1] [%] | PARP cleavage (PARP [2]) | FAS protein levels (FAS receptor [3]) | IC50 ([1]; Homo sapiens, HOP-92, 20-100 μM, read-out: 50% reduction in cell survival (IC50)) [µM] | reduced the survival of Hep3B cell line by [4] [%] | reduced the survival of PLC-5 cell line by ([5]; 100 μM) [%] | IC50 ([5]; Homo sapiens, PLC-5, 20-100 μM, read-out: 50% reduction in cell survival (IC50)) [µM] | PARP cleavage (PARP [6]) | effect on survival of SNU cell line [7] [%] | Bim1 increase compared to the control sample (Bim1) [fold] | FAS receptor levels compared to the control (FAS receptor [8]) | HeLa cell viability, result in words (HeLa cells)
1 | CCCCCCCC[C@@H](O)CCCCCCC(=O)O [(R)-8-HHA, 8(R)-hydroxypalmitic acid] | 13 | – | – | – | – | – | – | – | – | – | – | –
2 | CCCCCCCC[C@H](O)CCCCCCC(=O)O [(S)-8-HHA, 8(S)-hydroxypalmitic acid] | 72 | resulted in the PARP cleavage | reduction of FAS protein levels | ~90 | ~75 | ~75 | ~50 | resulted in the PARP cleavage | ~75 | 2 | substantial reduction in FAS receptor levels | –
3 | CC(C)(C)c1ccc(C(O)CCCN2CCC(C(O)(c3ccccc3)c3ccccc3)CC2)cc1 (stereo not shown) [Terfenadine] | – | – | – | – | – | – | – | – | – | – | – | dose dependent inhibition
